In patent US8067424B2, “Selective inhibitors for cyclin-dependent kinases” (Emory University, priority 2007, dated 2011):
Where two headings read alike, the source gives them in different places.

Assays:
Format in all cases: biochemical
p38γ MAPK = biological target: T1, p38γ MAPK (Homo sapiens, UniProt P53778); experiment: Kinase screen: SAPK 3/p38g assay
T1 sequence (P53778 1-367): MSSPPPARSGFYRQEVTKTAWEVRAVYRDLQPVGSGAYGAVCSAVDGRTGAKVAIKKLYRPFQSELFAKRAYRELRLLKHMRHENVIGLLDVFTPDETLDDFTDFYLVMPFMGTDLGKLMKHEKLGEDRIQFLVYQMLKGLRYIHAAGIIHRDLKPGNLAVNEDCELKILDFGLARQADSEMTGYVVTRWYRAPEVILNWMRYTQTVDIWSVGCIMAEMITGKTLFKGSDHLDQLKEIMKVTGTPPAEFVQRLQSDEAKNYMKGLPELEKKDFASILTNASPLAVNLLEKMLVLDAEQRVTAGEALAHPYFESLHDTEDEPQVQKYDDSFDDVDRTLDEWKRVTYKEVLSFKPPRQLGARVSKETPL
Method: (§1) Generally, the same procedure was used for all assays. Since the total assay volume was 25.5 microliters, 0.5 microliters of inhibitors at 51× assay concentration were added to the plates before any other addition.
(§2) The basic procedure was to add 0.5 microliters inhibitor/control in DMSO to plate. Fifteen microliters of enzyme/substrate/buffer mix were added and incubated for 5 min. Ten microliters MgATP at the relevant concentration were added and incubated for 30 min. The assay was stopped by adding 5 microliters of 3% orthophosphoric acid. The assay was transferred to a p81 filter plate and read in a scintillation counter of 30 sec/well. Note that this assay procedure was not followed for MKK1, which instead involved a two-step assay, and PKC alpha, which required the addition of lipid vesicles.
SAPK 3/p38g assay: SAPK 3/p38g (5-20 mU diluted in 50 mM Tris pH 7.5, 0.1 mM EGTA, 0.1 mM Na3VO4, 0.1% b-mercaptoethanol, 1 mg/ml BSA) was assayed against MBP in a final volume of 25.5 μl containing 25 mM Tris pH 7.5, 0.1 mM EGTA, 0.33 mg/ml MBP, 10 mM magnesium acetate and 0.005 mM [33P-g-ATP] (50-1000 cpm/pmole) and incubated for 30 min at room temperature. Assays were stopped by addition of 5 μl of 0.5 M (3%) orthophosphoric acid and then harvested onto P81 Unifilter plates with a wash buffer of 50 mM orthophosphoric acid.

TBK1 = biological target: T2, TBK1 (Homo sapiens, UniProt Q9UHD2); experiment: Kinase screen: TBK1 / TBK1 (DU12569) assay; conditions: 10 micromolar compound; for remaining activity at 10 µM: read-out: mean activity remaining (as a percentage of the original activity), TBK1
T2 construct: DU12569
T2 sequence (Q9UHD2 1-729): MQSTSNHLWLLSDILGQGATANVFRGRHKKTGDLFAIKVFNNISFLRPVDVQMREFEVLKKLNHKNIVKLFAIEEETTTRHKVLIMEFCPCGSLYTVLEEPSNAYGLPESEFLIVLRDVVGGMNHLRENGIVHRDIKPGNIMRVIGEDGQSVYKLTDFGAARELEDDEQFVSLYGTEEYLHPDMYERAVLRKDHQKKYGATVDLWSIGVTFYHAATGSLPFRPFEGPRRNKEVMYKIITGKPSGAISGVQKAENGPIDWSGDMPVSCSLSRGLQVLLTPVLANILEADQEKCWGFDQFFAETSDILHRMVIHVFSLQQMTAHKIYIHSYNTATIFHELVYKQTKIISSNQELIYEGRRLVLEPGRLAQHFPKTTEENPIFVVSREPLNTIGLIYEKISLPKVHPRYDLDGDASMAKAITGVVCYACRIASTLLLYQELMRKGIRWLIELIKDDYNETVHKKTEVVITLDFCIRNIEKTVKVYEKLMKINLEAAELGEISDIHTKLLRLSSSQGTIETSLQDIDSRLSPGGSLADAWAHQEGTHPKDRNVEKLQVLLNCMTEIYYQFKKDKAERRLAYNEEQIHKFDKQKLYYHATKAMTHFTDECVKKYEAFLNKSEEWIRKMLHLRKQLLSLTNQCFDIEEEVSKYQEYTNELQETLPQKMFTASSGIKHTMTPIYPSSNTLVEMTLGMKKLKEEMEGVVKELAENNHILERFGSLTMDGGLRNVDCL
Method: as §1, §2
(§3) TBK1 assay: TBK1 (5-20 mU diluted in 50 mM Tris pH 7.5, 0.1 mM EGTA, 1 mg/ml BSA) was assayed against a substrate peptide ([…]) (SEQ ID NO: 31) in a final volume of 25.5 μl containing 50 mM Tris pH 7.5, 300 μM substrate peptide, 10 mM magnesium acetate and 0.05 mM [33P-g-ATP] (50-1000 cpm/pmole) and incubated for 30 min at room temperature. Assays were stopped by addition of 5 μl of 0.5 M (3%) orthophosphoric acid and then harvested onto P81 Unifilter plates with a wash buffer of 50 mM orthophosphoric acid.
as §3, with “TBK1 (DU12569)” for “TBK1”, “37)” for “31)”

IRR = IRR (Homo sapiens, UniProt P14616); experiment: Kinase screen: IRR assay; conditions: 10 micromolar compound; for remaining activity at 10 µM: read-out: mean activity remaining (as a percentage of the original activity), IRR
Method: as §1, §2
IRR assay: 5-20 mU of IRR (diluted in 50 mM Hepes (pH 7.5), 0.1 mM EGTA) was assayed against MBP in a final volume of 25.5 μl containing 50 mM Hepes (pH 7.5), 0.1 mM EGTA, 0.33 mg/ml MBP, 10 mM magnesium acetate and 0.005 mM [33P-g-ATP](500-1000 cpm/pmole) and incubated for 30 mins at room temperature. Assays were stopped by addition of 5 μl of 0.5M (3%) orthophosphoric acid. Assays were harvested onto P81 Unifilter plates using a wash buffer of 50 mM orthophosphoric acid.

[1] = 10 micromolar compound, read-out: mean activity remaining (as a percentage of the original activity), p38g MAPK

IRR, sequence (P14616 27-1297, species assumed): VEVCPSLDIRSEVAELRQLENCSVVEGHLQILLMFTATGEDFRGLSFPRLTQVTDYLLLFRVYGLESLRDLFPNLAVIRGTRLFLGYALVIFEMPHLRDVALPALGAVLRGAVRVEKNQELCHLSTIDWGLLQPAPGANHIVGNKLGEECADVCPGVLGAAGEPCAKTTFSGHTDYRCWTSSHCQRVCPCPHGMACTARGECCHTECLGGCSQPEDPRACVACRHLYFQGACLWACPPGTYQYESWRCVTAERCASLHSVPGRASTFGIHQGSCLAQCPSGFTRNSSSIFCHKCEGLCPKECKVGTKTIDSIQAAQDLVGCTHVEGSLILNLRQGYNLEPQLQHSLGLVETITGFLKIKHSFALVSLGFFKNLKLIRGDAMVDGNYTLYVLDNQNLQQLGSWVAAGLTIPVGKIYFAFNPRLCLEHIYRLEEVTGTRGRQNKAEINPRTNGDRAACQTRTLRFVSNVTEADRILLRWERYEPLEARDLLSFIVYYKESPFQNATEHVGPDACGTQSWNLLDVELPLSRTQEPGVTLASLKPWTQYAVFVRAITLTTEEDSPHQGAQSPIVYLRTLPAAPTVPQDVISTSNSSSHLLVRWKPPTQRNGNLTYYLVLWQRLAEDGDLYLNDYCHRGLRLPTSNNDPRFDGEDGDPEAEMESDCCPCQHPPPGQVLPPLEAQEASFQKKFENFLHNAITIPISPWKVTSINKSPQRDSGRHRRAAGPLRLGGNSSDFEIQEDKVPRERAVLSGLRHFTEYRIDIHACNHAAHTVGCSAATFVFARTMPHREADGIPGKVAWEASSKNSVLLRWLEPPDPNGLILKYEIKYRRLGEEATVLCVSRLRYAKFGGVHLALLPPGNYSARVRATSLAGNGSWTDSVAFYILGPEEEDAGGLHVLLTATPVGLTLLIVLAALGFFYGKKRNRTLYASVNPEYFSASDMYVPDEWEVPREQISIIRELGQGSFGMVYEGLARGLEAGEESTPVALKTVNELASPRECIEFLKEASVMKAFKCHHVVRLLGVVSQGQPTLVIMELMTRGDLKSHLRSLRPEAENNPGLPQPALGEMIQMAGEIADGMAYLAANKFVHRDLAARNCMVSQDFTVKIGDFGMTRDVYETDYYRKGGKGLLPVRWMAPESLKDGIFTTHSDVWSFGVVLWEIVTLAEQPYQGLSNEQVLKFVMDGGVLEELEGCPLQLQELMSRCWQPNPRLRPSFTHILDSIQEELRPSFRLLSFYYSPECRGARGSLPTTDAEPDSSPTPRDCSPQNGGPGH

| SMILES | remaining activity at 10 µM (p38γ MAPK; p38γ MAPK, 10 μM, read-out: Mean Remaining Enzyme Activity (%)) [%] | remaining activity at 10 µM (TBK1) [%] | remaining activity at 10 µM (IRR) [%] | remaining activity at 10 µM (p38γ MAPK; [1]) [%] | mean activity remaining (as a percentage of the original activity), TBK1 (TBK1) [%] | mean activity remaining (as a percentage of the original activity), IRR (IRR) [%] | mean activity remaining (as a percentage of the original activity), p38g MAPK (p38γ MAPK; 10 micromolar compound) [%] |
| --- | --- | --- | --- | --- | --- | --- | --- |
| CC(C)c1cnn2c(NCc3ccccc3)cc(NCCCCCCCN)nc12 [BS-181] | 108 | – | – | – | – | – | – |
| C=C[C@H](CO)Nc1cc(NCc2ccccc2)n2ncc(C(C)C)c2n1 [ICEC0065] | – | 83 | 24 | 108 | – | – | – |
| CC[C@H](CO)Nc1cc(NCc2ccccc2)n2ncc(C(C)C)c2n1 [ICEC0067] | – | 85 | 23 | 82 | – | – | – |
| CC(C)c1cnn2c(NCc3ccccc3)cc(N[C@@H](CO)[C@H](O)CO)nc12 [ICEC0318, (3S)-3-(7-(Benzylamino)-3-isopropylpyrazolo[1,5-a]pyrimidin-5-ylamino)butane-1,2,4-triol] | – | 87 | 32 | 112 | – | – | – |
| CC(C)c1cnn2c(NCc3ccccc3F)cc(NCCCCCN)nc12 [ICEC-0232] | – | – | – | – | 91 | 29 | 91 |
